Data taken from patent US9045440B2, “Desazadesferrothiocin and desazadesferrothiocin polyether analogues as metal chelation agents” (FerroKin Biosciences, Inc., priority 2010, dated 2015).
Like-named read-outs stand apart in the source and are kept apart here.

Columns and labels:
[1] = mode of iron excretion; cited from earlier work
[2] = cited from earlier work
[3] = rats, 300 μmol/kg intraperitoneally immediately after uranyl acetate; cited from earlier work
[4] = pH 7.4
Description: Measurements were taken via LC/MS.
To each 5 μL aliquot of stock solution of each sample was added 500 μL of PBS pH 7.4 and 500 μL of octanol and a stir bar. […] Stir bars were removed and samples centrifuged at 15,000 g for 15 minutes to separate the phases, and pipette and syringe were used to remove the upper (octanol) and lower (buffer) phases to empty tubes, respectively. Aliquots of 5 μL were taken from upper phases and diluted with 495 μL of methanol. Aliquots of 50 μL were taken from lower phases and diluted with 450 μL of methanol. Reference solutions of progesterone or metopolol were also prepared and tested as standards.

[5] = ratio of ICE in one species (monkey) to the other (rat)

Structure (SMILES)	Rodent ICE [urine/bile] [1]	Primate ICE [urine/bile] ([2]; mode of iron excretion)	ICE Ratio [2, 5]	also measured
COCCOCCOc1ccc(C2=N[C@@](C)(C(=O)O)CS2)c(O)c1 [Example A, (S)-2-(2-hydroxy-4-(2-(2-methoxyethoxy)ethoxy)phenyl)-4-methyl-4,5-dihydrothiazole-4-carboxylic acid]	[97/3]			ICE Ratio ([2]; primate (capsule) to rodent): 1.0; ICE Ratio ([2]; primate (sodium salt) to rodent): 1.1; Primate ICE [urine/bile] ([2]; given as capsule): [93/7]; Primate ICE [urine/bile] ([2]; given as sodium salt): [83/17]
COCCOCCOCCOc1ccc(C2=N[C@@](C)(C(=O)O)CS2)c(O)c1 [Example B, (S)-2-(2-hydroxy-4-(2-(2-(2-methoxyethoxy)ethoxy)ethoxy)phenyl)-4-methyl-4,5-dihydrothiazole-4-carboxylic acid]	[90/10]	[96/4]	4.6	Uranium Excretion [urine/bile] [3]: [35/65]
COCCOCCOCCOCCOc1ccc(C2=N[C@@](C)(C(=O)O)CS2)c(O)c1 [Example C, (S)-2-(4-(2,5,8,11-tetraoxatridecan-13-yloxy)-2-hydroxyphenyl)-4-methyl-4,5-dihydrothiazole-4-carboxylic acid]	[99/1]	[52/48]	0.8	
COCCOCCOc1cccc(C2=N[C@@](C)(C(=O)O)CS2)c1O [Example D, (S)-2-(2-hydroxy-3-(2-(2-methoxyethoxy)ethoxy)phenyl)-4-methyl-4,5-dihydrothiazole-4-carboxylic acid]	[99/1]			
COCCOCCOCCOc1cccc(C2=N[C@@](C)(C(=O)O)CS2)c1O [Example E, (S)-2-(2-hydroxy-3-(2-(2-(2-methoxyethoxy)ethoxy)ethoxy)phenyl)-4-methyl-4,5-dihydrothiazole-4-carboxylic acid]	[95/5]	[95/5]	2.2	
COCCOCCOCCOCCOc1cccc(C2=N[C@@](C)(C(=O)O)CS2)c1O [Example F, (S)-2-(3-(2,5,8,11-tetraoxatridecan-13-yloxy)-2-hydroxyphenyl)-4-methyl-4,5-dihydrothiazole-4-carboxylic acid]	[98/2]	[25/75]	0.8	
COCCc1ccc(OCC(O)CNC(C)C)cc1 (centres unmarked) [metopolol]				LogD [4]: −0.27
